Laboratory results from the Deep4Chem optical property database.
One block for each compound: values may come before it.

Test: solvent given as SMILES

emission maximum (in ClC(Cl)Cl): 575 nm
Compound: N#Cc1nc(N(Cc2ccc(Br)cc2)Cc2ccc(Br)cc2)c(C#N)nc1N(Cc1ccc(Br)cc1)Cc1ccc(Br)cc1

emission maximum (in CO): 630 nm
emission maximum (in ClCCl): 618 nm
Compound: CCCCCCN(CCCCCC)c1ccc(C#Cc2ccc([N+](=O)[O-])cc2)cc1

emission maximum (in CC#N): 625 nm
emission maximum (in CCCCCC): 586 nm
emission maximum (in CO): 635 nm
Compound: COc1ccc2c(c1)N(c1ccc(C)cc1)c1cc3c(cc1=N2)Oc1c(cc(C(C)(C)C)cc1C(C)(C)C)N=3

emission maximum (in CC#N): 470 nm
emission maximum (in CO): 467 nm
emission maximum (in O): 482 nm
Compound: CN1CCN(CCCN2c3ccccc3Sc3ccc(C(F)(F)F)cc32)CC1

emission maximum (in ClC(Cl)Cl): 831 nm
Compound: CCCCCCCCOc1ccc(-c2c3c4n(c(-c5ccc(OCCCCCCCC)cc5)c3c3n2[B-](c2ccccc2)(c2ccccc2)[n+]2c(ccc5cc(C(C)(C)C)ccc52)C=3C#N)[B-](c2ccccc2)(c2ccccc2)[n+]2c(ccc3cc(C(C)(C)C)ccc32)C=4C#N)cc1

emission maximum (in ClCCl): 706 nm
Compound: COc1ccc(C#Cc2c3cc4ccccc4cc3c(C#Cc3ccc(OC)cc3)c3cc4ccccc4cc23)cc1

emission maximum (in ClC(Cl)Cl): 773 nm
Compound: CCCCCCCCOc1ccc(-c2c3c4n(c(-c5ccc(OCCCCCCCC)cc5)c3c3n2[B-](F)(F)[n+]2c(ccc5cc(C(C)(C)C)ccc52)C=3C#N)[B-](F)(F)[n+]2c(ccc3cc(C(C)(C)C)ccc32)C=4C#N)cc1

emission maximum (in CCO): 651 nm
emission maximum (in ClC(Cl)Cl): 647 nm
emission maximum (in O): 658 nm
Compound: CC[N+](CC)=c1ccc2c(-c3ccccc3C(=O)O)c3c(=O)oc4cc5c(cc4c3oc-2c1)CCCN5C

Further lines, the compound ahead of its results:

Compound: CN(C)c1cc(C#N)c(N(C)C)c(C#N)c1
emission maximum (in C1CCCCC1): 495.79 nm
emission maximum (in C1CCOC1): 518.13 nm
emission maximum (in C1COCCO1): 521.65 nm
emission maximum (in CC1COC(=O)O1): 532.48 nm
emission maximum (in CC#N): 529.94 nm
emission maximum (in CC(C)=O): 524.93 nm
emission maximum (in CC(C)OC(C)C): 503.02 nm
emission maximum (in CCC#N): 525.76 nm
emission maximum (in CCC(C)C): 493.58 nm
emission maximum (in CCCCCC): 493.83 nm
emission maximum (in CCCCCCCCO): 523.29 nm
emission maximum (in CCCCCOCCCCC): 505.82 nm
emission maximum (in CCCCOC(C)=O): 516.8 nm
emission maximum (in CCCCOCCCC): 502.26 nm
emission maximum (in CCCOCCC): 507.61 nm
emission maximum (in CCO): 528.26 nm
emission maximum (in CCOC(C)=O): 519.21 nm
emission maximum (in CCOCC): 507.36 nm
emission maximum (in CN(C)C=O): 533.9 nm
emission maximum (in CO): 530.5 nm
emission maximum (in CS(C)=O): 538.21 nm
emission maximum (in Cc1ccccc1): 516.8 nm
emission maximum (in ClCCCl): 523.56 nm
emission maximum (in ClCCl): 522.74 nm
emission maximum (in N#Cc1ccccc1): 529.1 nm
emission maximum (in O): 555.25 nm
emission maximum (in OCC(O)CO): 547.35 nm
emission maximum (in c1ccccc1): 519.48 nm

Compound: C1=C(c2ccc(-c3cccs3)s2)CCC1
emission maximum (in C1CCOC1): 413 nm
emission maximum (in CC#N): 412 nm
emission maximum (in CCCCCC): 410 nm
emission maximum (in CCO): 408 nm
emission maximum (in OCCOCCO): 416 nm
emission maximum (in c1ccncc1): 418 nm

Compound: CCCCCCOc1cc(/C=C/c2cc(OCCCCCC)c(/C=C/c3cc(OCCCCCC)c(C=C4C(=O)c5ccccc5C4=O)cc3OCCCCCC)cc2OCCCCCC)c(OCCCCCC)cc1C=C1C(=O)c2ccccc2C1=O
emission maximum (in ClCCl): 662 nm

Compound: c1ccc2c(c1)c1ccccc1n2-c1ccc(-c2nnc(-c3ccc(-n4c5ccccc5c5ccccc54)cc3)o2)cc1
emission maximum (in Cc1ccccc1): 386 nm
emission maximum (in O=P(c1ccccc1)(c1ccccc1)c1ccccc1Oc1ccccc1P(=O)(c1ccccc1)c1ccccc1): 414 nm

Compound: c1ccc(-c2nc(-c3ccccc3)nc(-c3ccc(-n4c5ccccc5c5cc6c(cc54)c4ccccc4n6-c4ccccc4)cc3)n2)cc1
emission maximum (in Cc1ccccc1): 478 nm
emission maximum (in O=P(c1ccccc1)(c1ccccc1)c1ccc2oc3ccc(P(=O)(c4ccccc4)c4ccccc4)cc3c2c1): 511 nm

Compound: O=C(c1ccc(-n2c3ccc(-c4ccccc4)cc3c3cc(-c4ccccc4)ccc32)cc1)c1ccc(-n2c3ccc(-c4ccccc4)cc3c3cc(-c4ccccc4)ccc32)cc1
emission maximum (in Cc1ccccc1): 438 nm

Compound: CCCCc1ccc(-n2c3c(c4c2c2c(n4-c4ccc(CCCC)cc4)-c4cc(F)ccc4NB2c2ccccc2)B(c2ccccc2)Nc2ccc(F)cc2-3)cc1
emission maximum (in Cc1ccccc1): 406 nm
